Patent US11986458B1, “Natural and synthetic andrographolides compounds for the treatment of skeletal muscular dystrophies” (Innobiosciences LLC, priority 2018, dated 2024)

Columns and labels:
[1] = test system: MES-13 cells; settings: cited from earlier work; for intracellular oxidative states: high glucose cultured MES-13 cells
[2] = test system: mdx mice; experiment: Isometric force of isolated muscles from treated exercised mdx mice; type: in vivo, mouse; settings: treadmill exercise, andrographolide 1.0 mg/kg/day ip, prednisone 5 mg/kg, single electro-stimulation and high frequency stimulation
Experimental: We used 12-week-old control or mdx male mice of the C57BL/10 ScSn strain. The animals were kept at room temperature with a 24-hour night-day cycle and were fed with pellets and water ad libitum. Experimental exercise involved running the mice on a treadmill three times per week for 30 minutes each session at 12 m/minute over three or four months. […]
The isometric force of isolated muscles was measured as described previously. Briefly, optimum muscle length (Lo) and stimulation voltage were determined from micromanipulation of muscle length to produce maximum isometric twitch force. Maximum isometric tetanic force (Po) was determined from the plateau of the frequency-force relationship after successive stimulations at 1 to 200 Hz for 450 ms, with 2-minute rests between stimuli. […]

[3] = test system: mdx mice; experiment: Skeletal muscle histology (H&E) and collagen type I indirect immunofluorescence, tibialis anterior of mdx mice; type: in vivo, mouse; settings: 3 months administration; for damaged areas in muscle, Hematoxylin and Eosin staining: tibialis anterior, compared to vehicle-treated mdx mice
Experimental: We used 12-week-old control or mdx male mice of the C57BL/10 ScSn strain. The animals were kept at room temperature with a 24-hour night-day cycle and were fed with pellets and water ad libitum. Experimental exercise involved running the mice on a treadmill three times per week for 30 minutes each session at 12 m/minute over three or four months. See Morales, MG. et al., Reducing CTGF/CCN2 Slows Down MDX Muscle Dystrophy And Improves Cell Therapy, 22 Hum Mol Genet 4938 (2013), DeLuca, A. et al., Enhanced Dystrophic Progression In MDX Mice By Exercise And Beneficial Effects Of Taurine And Insulin-Like Growth Factor-1, 304 J Pharmacol Exp Ther 453 (2003), DeLuca, A. et al., A Multidisciplinary Evaluation Of The Effectiveness Of Cyclosporine A In Dystrophic MDX Mice, 166 Am J Pathol 477 (2005), Cabello-Verrugio, C. et al., Angiotensin II Receptor Type 1 Blockade CTGF/CCN2-Mediated Damage And Fibrosis In Normal And Dytrophic Skeletal Muscles, 16 J Cell Mol Med 752 (2012). Four experimental groups were designed: animals in the first group were injected intraperitoneally (ip) with andrographolide (1.0 mg/kg/day). Animals in the second group were treated with prednisone (5 mg/kg). Third group, animals were treated with prednisone together with andrographolide. Fourth group animals were injected with saline. At the end of the experiment the muscles were dissected and removed under anesthesia (isofluorane gas) and then the animals were sacrificed. Tissues were used for electrophysiological measurement or rapidly frozen and stored at −80° C. until processing. All protocols were conducted in strict accordance with guidelines and with the formal approval of the Animal Ethics Committee of the Pontificia Universidad Católica de Chile.
Architecture and histology were detected by hematoxylin-eosin (H&E) stain in transverse sections of muscle. See Morales, MG. et al., CTGF/CCN-2 Over-Expression Can Directly Induce Features Of Skeletal Muscle Dystrophy, 225 J Pathol 490 (2011). Collagen Type I was determined as described in Morales, MG. et al., Reducing CTGF/CCN2 Slows Down MDX Muscle Dystrophy And Improves Cell Therapy, 22 Hum Mol Genet 4938 (2013).
Tissue samples evaluated using collagen type I immuno-staining. […] We posit that this prevents tissue damage in mdx mice.

[4] = test system: mdx mice; experiment: Life expectancy / survival of mdx mice under life-long treatment; type: in vivo, mouse
Experimental: Groups of mdx mice were treated with or without andrographolide (1.0 mg/kg/day) 3 times per weeks starting at one month old until they die naturally. The animals were maintained under free food and water access all the time. Days of death was recorded.
To evaluate whether andrographolide affects survival in dystrophic mice we perform a long term treatment with andrographolide through intra-peritoneal injections, three times per weeks starting at one month old until they die naturally, in order to determine the effects over life expectancy in mdx mice.

[5] = test system: patients with Duchenne Muscular Dystrophy; experiment: PedsQL for Duchenne Muscular Dystrophy Module questionnaire in pediatric DMD patients; type: in vivo, human; settings: 70 mg orally twice per day
Experimental: Thirteen pediatric patients were derived from the Chilean Duchenne Association with confirmed clinical diagnostic. Of the thirteen patients, seven of them used chronic glucocorticoid treatment (Table A). Two of the patients had disease advanced enough so that the patients were no longer ambulatory.
All patients, both those treated with glucocorticoid and those not requiring glucocorticoid, received 70 mg andrographolide (as a standardized extract) orally two times per day. Treatment periods ranged from one month to more than twelve months. […] (Table B)
Thirteen (13) children with DMD of different ages (ranging from 4 to 14 years old) were treated with Andrographis paniculata capsules (either taking corticosteroids or not) for a variable period of time (ranging from one month to two years) (Table A).
Each parent or tutor received a questionnaire with different scores parameters to be completed. The parents were asked to fill out the Pediatric Quality of Life Inventory TM questionnaire (PedsQL for Duchenne Muscular Dystrophy Module) of their perception about; Quality of life, Sleep, Pain, Cold, Walk/Move, Play/Run, Jump, Coordination, Force and Mood of children during Andrographis paniculata treatment (Table B).

[6] = test system: mdx mouse; settings: cited from earlier work
[7] = test system: CTGF; settings: in vitro (skeletal cells); cited from earlier work
[8] = test system: cholestasis-induced apoptosis; settings: in vivo; cited from earlier work
[9] = test system: DMD; settings: glucocorticoids such as prednisone; cited from earlier work
[10] = test system: dystrophin; settings: mdx mice; cited from earlier work
[11] = test system: dystrophin; settings: cited from earlier work
[12] = 12 DMD patients over a six-month period

C=C1CCC2C(C)(CO)C(O)CCC2(C)C1C=CC1=CCOC1=O (stereo not drawn) [AP2, 14-deoxy-11,12-didehydro-andrographolide]
reduction of apoptosis marker caspase-3, fibrosis marker TGF-β1, and PAI-1 ([1]; MES-13 cells, comparison AP2 vs AP1): more potent activity than AP1 | phenotypes indicating diabetic nephropathy ([1]; MES-13 cells): reduced the phenotypes indicating diabetic nephropathy | antioxidant ability in a cellular environment [1]: do not have antioxidant ability | intracellular oxidative states [1]: reduced intracellular oxidative states

C=C1CC[C@@H]2[C@](C)(CO)[C@H](O)CC[C@@]2(C)[C@@H]1C/C=C1/C(=O)OC[C@H]1O [andrographolide, 3-[2-[Decahydro-6-hydroxy-5-(hydroxymethyl)-5,8a-dimethyl-2-methylene-1-napthalenyl]ethylidene]dihydro-4-hydroxy-2(3H)-furanone]
isolated muscle strength (maximal switch force and tetanic contraction) [2]: improved muscle contraction at similar levels than the induced by prednisone | fibrosis, collagen type I immuno-staining [3]: diminish fibrosis | damaged areas in muscle, Hematoxylin and Eosin staining [3]: prevented the increase of damaged areas | total life expectancy ([4]; mdx mice, 1.0 mg/kg/day ip three times per week from one month old until natural death, n=6): around 21.7±2.35 months | increase of life expectancy of dystrophic mice ([4]; versus vehicle-treated mdx mice): 15% | improvement in quality of life, quality of sleep, pain, colds, coordination, force and mood ([5]; 13 DMD patients): important improvement | overall effect on PedsQL parameters ([5]; all 13 DMD patients, one month to more than twelve months): slight to important improvement | muscle associated fibrosis ([6]; animal model of DMD, the mdx mouse): significantly reduces muscle associated fibrosis | exercise resistance in dystrophic mice ([6]; mdx mouse): increase exercise resistance | skeletal muscle force in dystrophic muscles ([6]; mdx mouse): increase | expression of pro-fibrotic factor CTGF [7]: able to inhibit | phenotypes indicating diabetic nephropathy ([1]; MES-13 cells): reduced the phenotypes indicating diabetic nephropathy | antioxidant ability in a cellular environment [1]: do not have antioxidant ability | intracellular oxidative states [1]: reduced intracellular oxidative states | protection against cholestasis-induced apoptosis [8]: potent protector

C[C@]12C=CC(=O)C=C1CC[C@@H]1[C@@H]2C(=O)C[C@@]2(C)[C@H]1CC[C@]2(O)C(=O)CO [prednisone, reference compound]
isolated muscle strength (maximal switch force and tetanic contraction) [2]: improved muscle contraction | fibrosis, collagen type I immuno-staining [3]: diminish fibrosis | damaged areas in muscle, Hematoxylin and Eosin staining [3]: prevented the increase of damaged areas | side effects [9]: severe side effects

gentamicin
dystrophin expression in muscle fibers above normal levels [10]: 20% | clinical benefits [11, 12]: no clinical benefits were observed | patients with dystrophin expression detected [11, 12]: 6 of the 12 | muscle strength and re-expression of dystrophin in muscles ([11]; one of the studies on DMD patients): beneficial effect on muscle strength and a re-expression of dystrophin in muscles
